Data as given in patent US20230276803A1, “A PESTICIDALLY ACTIVE MIXTURE COMPRISING THIETANYLOXY COMPOUND, OXIDES OR SALTS THEREOF” (PI INDUSTRIES LTD., priority 2020, published 2023).
Where two headings read alike, the source gives them in different places.

Legend:
Type in all cases: in vivo
Plutella xylostella = test: Leaf dip method (cabbage) against Plutella xylostella (Example C); conditions: 72 h
Text: (§1) In which E represents the expected percentage of inhibition of the pests for the combination of two insecticides or one insecticide and one fungicide at defined doses (for example equal to x and y respectively), x is the percentage of inhibition observed for the pest/disease by the compound (1) at a given dose (equal to x), y is the percentage of inhibition observed for the pest/disease by the compound (2) or (3) at a defined dose (equal to y). When the percentage of inhibition observed for the combination is greater than E, there is a synergistic effect.
The leaf dip method was used, wherein the required quantity of the compound or respective compound combinations were weighed and dissolved in a test solution prepared in tubes. The tubes were put on a vortex at 2000 rpm for 90 min for proper mixing and then diluted with a 0.01% Triton-X solution to the desired test concentration. Cabbage leaves were dipped into the solution for 10 seconds, shade dried for 20 min and then transferred to single cells of bioassay trays. A single second instar larva was released into each cell and the tray was covered with a lid. The bio-assay trays were kept under laboratory conditions at a temperature of 25° C. and relative humidity of 70%. Observations on dead, moribund and live larvae were recorded 72 h after the release. Percent mortality was calculated by combining dead and moribund larvae and comparing the result with the one of the untreated control. The results are shown for compound of formula (I-1) in Table C.

Helicoverpa armigera = test: Diet incorporation method against Helicoverpa armigera (Example A); conditions: 96 h
Text: as §1
The diet incorporation method was used, in which semi-synthetic diet was incorporated into the test solutions consisting either of the single compounds or respective compound combinations, when the temperature was approximately 50° C. in the bio-assay containers, then stirred thoroughly for proper mixing and allowed to cool for 30 min. The solidified diet was cut into equal pieces, and then each piece was transferred into one cell of a bio-assay tray. A single starved third instar larva was released into each of these cells of the bio-assay trays and the tray was covered with a lid. The bio-assay trays were kept under laboratory conditions at a temperature of 25° C. and relative humidity of 70%. Observations on dead, moribund and live larvae were recorded 96 h after the release of the larvae. Percent mortality was calculated by combining dead and moribund larvae and comparing the result to the one of the untreated control. The results are shown for the compound of formula (I-1) in Table A.

[1] = test system: Parastagonospora nodorum/Septoria nodorum/Stagnospora nodorum; test: Preventive glasshouse test against Septoria nodorum in wheat (Example J); conditions: preventive spray
Text: as §1
(§2) The single compounds or respective compound combinations were dissolved in 2% dimethyl sulfoxide/acetone and then mixed with water containing emulsifier to a calibrated spray volume of 50 mL. The test solutions were poured into spray bottles for further applications.
[…] One day after treatment, the plants were inoculated with a spore suspension containing 2.8×10^6 Stagnospora nodorum inoculum.
The inoculated plants were then kept in a greenhouse chamber at 22-25° C. temperature and 90-100% relative humidity for disease expression.
(§3) A visual assessment of the performance of the single compounds or compound combinations was carried out by rating the disease severity (0-100% scale) on treated plants 3, 7, 10 and 15 days after application. Efficacy (% control) of the single compounds and mixtures was calculated by comparing the disease rating in the treatment with the one of the untreated control. The compounds were also assessed for their plant compatibility by recording symptoms like necrosis, chlorosis and stunting. The results have been described for the compound of formula (I-1) in Table J.

Phakopsora pachyrhizi = test: Preventive glasshouse test against Phakopsora pachyrhizi in soybean (Example H); conditions: preventive spray
Text: as §1
The single compounds or the respective compound combinations were dissolved in 2% dimethyl sulfoxide/acetone and then mixed with water containing an emulsifier to a calibrated spray volume of 50 ml. The test solutions were poured into spray bottles for further applications.
To test the preventive activity of compounds, healthy young Soybean plants, raised in the greenhouse, were sprayed with the active compound preparation at the stated application rates inside the spray cabinets using hollow cone nozzles. One day after treatment, the plants were inoculated with a suspension containing 2×10^5 Phakopsora pachyrhizi conidia. The inoculated plants were then kept in a greenhouse chamber at a temperature of 22-24° C. and 80-90% relative humidity for disease expression.
A visual assessment of the performance of the single compounds and respective compound combinations was carried out by rating the disease severity (0-100% scale) on treated plants 3, 7, 10 and 15 days after application. Efficacy (% control) of the compounds was calculated by comparing the disease rating in the treatment with the one of the untreated control. The compounds were also assessed for their plant compatibility by recording symptoms like necrosis, chlorosis and stunting. The results have been described for the compound of formula (I-1) in Table H.

Spodoptera litura = test: Diet incorporation method against Spodoptera litura (Example B); conditions: 96 h; for pest or weed control at 10 ppm: read-out: Observed Efficacy (%), 10 ppm
Text: as §1
The diet incorporation method was used, in which semi-synthetic diet was incorporated into the test solution consisting either of the single compound or respective compound combinations, when the temperature was approximately 50° C. in the bioassay containers, then stirred thoroughly for proper mixing and allowed to cool for 30 min. The solidified diet was cut into equal pieces, and then each piece was transferred into one cell of the bio-assay trays. A single starved third instar larva was released into each of these cells of the bio-assay trays and the tray was covered with a lid. The bio-assay trays were kept under laboratory conditions at a temperature of 25° C. and relative humidity of 70%. Observations on dead, moribund and live larvae were recorded 96 h after the release. Percent mortality was calculated by combining dead and moribund larvae and comparing the result with the one of the untreated control. The results are shown for the compound of formula (I-1) in Table B.

Alternaria solani = test: Preventive glasshouse test against Alternaria solani in tomato (Example G); conditions: 100 ppm, preventive spray
Text: as §1, §2
To test the preventive activity, healthy young tomato plants, raised in the greenhouse, were sprayed with the active compound preparation at the stated application rates inside the spray cabinets using hollow cone nozzles. One day after treatment, the plants were inoculated with a spore suspension containing 0.24×10^6 Alternaria solani inoculum and 2% Malt. The inoculated plants were then kept in a greenhouse chamber at a temperature of 22-24° C. and 90-95% relative humidity for disease expression.
as §3, with “G.” for “J.”

Erysiphe cichoracearum = test: Preventive glasshouse test against Erysiphe cichoracearum in cucumber (Example K); conditions: 50 ppm, preventive spray
Text: as §1
The single compounds or the respective compound combinations were dissolved in 2% dimethyl sulfoxide/acetone and then mixed with water containing emulsifier to a calibrated spray volume of 50 mL. The test solutions were poured into spray bottles for further applications. […]
A visual assessment of the performance of the compounds and the respective compound combinations was carried out by rating the disease severity (0-100% scale) on treated plants 3, 7, 10 and 15 days after application. Efficacy (% control) of the single compounds or compound combinations was calculated by comparing the disease rating in the treatment with the one of the untreated control. The compounds were also assessed for their plant compatibility by recording symptoms like necrosis, chlorosis and stunting. […]

[2] = Plutella xylostella, foliar, read-out: Observed Efficacy (%)
[3] = Helicoverpa armigera, read-out: Observed Efficacy (%)

Molecule: CC(COc1ccc(Oc2ccccc2)cc1)Oc1ccccn1 (stereo not shown) [Pyriproxyfen]
- pest or weed control at 0.05 ppm (Plutella xylostella; [2]): 12.5%

Molecule: C=CCOC1=NS(=O)(=O)c2ccccc21 [Probenazole, probenazole]
- pest or weed control at 200 ppm (Helicoverpa armigera; [3]): 12.5%

Molecule: N#Cc1nn(-c2c(Cl)cc(C(F)(F)F)cc2Cl)c(N)c1[S+]([O-])C(F)(F)F (stereo not shown) [Fipronil, fipronil]
- pest or weed control at 0.005 ppm (Plutella xylostella; Plutella xylostella, foliar, 0.005 ppm, read-out: Observed Efficacy (%)): 50%

Molecule: CN1COCN(Cc2cnc(Cl)s2)/C1=N\[N+](=O)[O-] [Thiamethoxam, thiamethoxam]
- pest or weed control at 1 ppm (Plutella xylostella; [2]): 12.5%

Molecule: CON=CNC(=O)c1ccc(C2=NOC(c3cc(Cl)cc(Cl)c3)(C(F)(F)F)C2)cc1C (stereo not shown) [Fluxametamide, fluxametamide]
- Observed Efficacy (%) (Helicoverpa armigera; 0.13 ppm): 12.5%
- Observed Efficacy (%) (Helicoverpa armigera; 0.28 ppm): 12.5%

Molecule: spinetoram
- Observed Efficacy (%) (Helicoverpa armigera; 2.5 ppm): 87.5%

Molecule: CCc1nc2cc(C)c(Oc3ccc(OC(F)(F)F)cc3)cc2c(OC(=O)OC)c1C [Flometoquin, flometoquin]
- Observed Efficacy (%) (Plutella xylostella; 0.001 ppm): 0%
- Observed Efficacy (%) (Plutella xylostella; 0.005 ppm): 62.5%

Molecule: CO/C=C(/C(=O)OC)c1ccccc1Oc1cc(Oc2ccccc2C#N)ncn1 [Azoxystrobin, azoxystrobin]
- Observed Efficacy (%) ([1]; 0.05 ppm): 12%
- Observed Efficacy (%) ([1]; 0.1 ppm): 24%
- Observed Efficacy (%) (Phakopsora pachyrhizi; 0.1 ppm): 39%

Molecule: CC1=NNC(=O)N(/N=C/c2cccnc2)C1 [Pymetrozine, pymetrozine]
- pest or weed control at 0.01 ppm (Plutella xylostella; Plutella xylostella, foliar, 0.01 ppm, read-out: Observed Efficacy (%)): 0%
- pest or weed control at 0.05 ppm (Plutella xylostella; [2]): 0%

Molecule: COCC(=O)N(c1c(C)cccc1C)C(C)C(=O)OC (stereo not shown) [Metalaxyl, metalaxyl]
- pest or weed control at 100 ppm (Spodoptera litura; read-out: Observed Efficacy (%), 100 ppm): 0%
- Observed Efficacy (%) (Alternaria solani): 17%

Molecule: O=[N+]([O-])NC1=NCCN1Cc1ccc(Cl)nc1 [Imidacloprid, imidacloprid]
- pest or weed control at 50 ppm (Spodoptera litura; read-out: Observed Efficacy (%), 50 ppm): 25%
- pest or weed control at 0.1 ppm (Plutella xylostella; [2]): 0%

Molecule: N#Cc1ccc(CC(=NNC(=O)Nc2ccc(OC(F)(F)F)cc2)c2cccc(C(F)(F)F)c2)cc1 (mixture of isomers) [Metaflumizone, metaflumizone]
- Observed Efficacy (%) (Plutella xylostella; 0.001 ppm): 12.5%

Molecule: COC(=O)N(OC)c1ccccc1COc1ccn(-c2ccc(Cl)cc2)n1 [Pyraclostrobin, pyraclostrobin]
- pest or weed control at 200 ppm (Helicoverpa armigera; [3]): 0%
- pest or weed control at 500 ppm (Helicoverpa armigera; Helicoverpa armigera, 500 ppm, read-out: Observed Efficacy (%)): 0%
- pest or weed control at 200 ppm (Spodoptera litura; read-out: Observed Efficacy (%), 200 ppm): 0%
- pest or weed control at 500 ppm (Spodoptera litura; read-out: Observed Efficacy (%), 500 ppm): 0%

Molecule: Cn1cc(C(=O)Nc2ccccc2-c2cc(F)c(F)c(F)c2)c(C(F)F)n1 [Fluxapyroxad, fluxapyroxad]
- Observed Efficacy (%) (Phakopsora pachyrhizi; 0.05 ppm): 41%

Molecule: N#Cc1c[nH]cc1-c1cccc2c1OC(F)(F)O2 [Fludioxonil, fludioxonil]
- pest or weed control at 100 ppm (Helicoverpa armigera; Helicoverpa armigera, 100 ppm, read-out: Observed Efficacy (%)): 0%

Molecule: FC(F)(F)c1ccc(OCCCOc2c(Cl)cc(OCC=C(Cl)Cl)cc2Cl)nc1 [Pyridalyl, pyridalyl]
- pest or weed control at 0.002 ppm (Plutella xylostella; Plutella xylostella, foliar, 0.002 ppm, read-out: Observed Efficacy (%)): 50%

Molecule: CN/C(=N\[N+](=O)[O-])NCc1cnc(Cl)s1 [Clothianidin, clothianidin]
- pest or weed control at 10 ppm (Spodoptera litura): 0%
- pest or weed control at 0.1 ppm (Plutella xylostella; [2]): 0%

Molecule: COC(=O)NC(=S)Nc1ccccc1NC(=S)NC(=O)OC [Thiophanate-methyl, thiophanate-methyl]
- Observed Efficacy (%) (Erysiphe cichoracearum): 29%

Molecule: CCN(C(=O)CCSCCC(F)(F)F)c1cn(-c2cccnc2)nc1Cl [Tyclopyrazoflor]
- Observed Efficacy (%) (Helicoverpa armigera; 100 ppm): 12.5%

Molecule: CCOCn1c(-c2ccc(Cl)cc2)c(C#N)c(Br)c1C(F)(F)F [Chlorfenapyr, chlorfenapyr]
- pest or weed control at 0.15 ppm (Plutella xylostella; Plutella xylostella, foliar, 0.15 ppm, read-out: Observed Efficacy (%)): 62.5%
- pest or weed control at 0.2 ppm (Plutella xylostella; Plutella xylostella, foliar, 0.2 ppm, read-out: Observed Efficacy (%)): 75%

Molecule: Cc1c(COC(=O)[C@@H]2[C@H](/C=C(\Cl)C(F)(F)F)C2(C)C)cccc1-c1ccccc1 (racemic) [Bifenthrin, bifenthrin]
- pest or weed control at 20 ppm (Helicoverpa armigera; Helicoverpa armigera, 20 ppm, read-out: Observed Efficacy (%)): 75%
- pest or weed control at 10 ppm (Spodoptera litura): 12.5%
- pest or weed control at 1 ppm (Plutella xylostella; [2]): 25%

Molecule: CCS(=O)(=O)c1cccnc1-c1nc2cc(S(=O)(=O)C(F)(F)F)ccc2o1 [Oxazosulfyl, 2-[3-(ethanesulfonyl)pyridin-2-yl]-5-[trifluoro(methanesulfonyl)]-1,3-benzoxazole]
- pest or weed control at 100 ppm (Spodoptera litura; 100 ppm, read-out: Observed Efficacy (%)): 0%
- pest or weed control at 0.1 ppm (Plutella xylostella; [2]): 0%
